Data taken from article PMC12828148, “Engineered cyclic peptide targeting ITGA5 disrupts tumor–stroma interaction to overcome desmoplasia and resistance in pancreatic ductal adenocarcinoma” (Acta Pharmaceutica Sinica. B, 2025).
Peptide text beside a SMILES is read from it.

Assays:
[1] = test system: hPSC activated with TGF-β; assay: Inhibition of TGF-β-induced PSC activation (immunocytochemical staining, Western blot); format: cell-based, human; conditions: 5 ng/mL TGF-β, 48 h, peptides at 20 and 50 μmol/L
Procedure: secondary peroxidase labeled antibody was added and incubated for 1 h at RT. The HRP signal was developed using standard chemiluminescence kit and the signal was measured.
To evaluate the stability, 20 µmol/L peptide was incubated in 50% human plasma at biological temperature 37 °C for 1, 2, and 24 h. After incubation, plasma was precipitated by adding equal volume of 4% trichloroacetic acid (TCA) and rested on ice for 10 min. As control (or 0h), precipitation was performed immediately after mixing the peptide and plasma. Supernatant was collected after centrifugation at 13,300 × g and assessed using reversed phase high performance liquid chromatography (HPLC) with 5%, 95%, and 99.9% acetonitrile in de-gassed water with 0.1% trifluoroacetic acid as eluents. The remaining peptide was analyzed at a wavelength 280 nm.
Quantitative real-time PCR
To examine the effect of peptides on the gene expression of hPSC activation markers, cells were seeded into a 12 well plate at a seeding density of 50,000 cells/well. After overnight incubation, cells were starved for 24 h, then treated with human recombinant 5 ng/mL TGF-β (Peprotech, Hamburg, Germany) and […] peptide. After 24 h of the incubation, cells were lysed and total RNA was isolated using GenElute™ Mammalian Total RNA Miniprep Kit (Sigma–Aldrich) and the RNA concentration was measured using a NanoDrop® ND-1000 Spectrophotometer (Thermo Scientific, Waltham, USA). cDNA was synthesized with iScript™ cDNA Synthesis Kit (BioRad, Veenendaal, The Netherlands), and 10 ng cDNA was used for each PCR reaction. […] Quantitative real time PCR was performed with 2× SensiMix SYBR and Fluoroscein Kit (Bioline GmbH, Luckenwalde, Germany) using a BioRad CFX384 Real-Time PCR detection system (BioRad). […]
To evaluate the effect of peptides on the protein expression of hPSC activation markers, hPSCs were seeded into a 12 well plate at seeding density 50,000 cells/well. […] Proteins were detected with […]
medium. […] Images were analyzed using […]
secondary fluorescence-labeled antibody diluted in PBS. […]

[2] = test system: PANC-1 homospheroids / PANC-1 + PSC heterospheroids; assay: Gene expression in 3D PANC-1 homospheroids and PANC-1 + PSC heterospheroids (qPCR); format: cell-based, human; conditions: treated Days 3 and 6, qPCR Day 7, n = 3
[3] = test system: PANC-1 + PSC and MIA PaCa-2 + PSC co-injection xenograft tumors
Procedure: Six-week-old male CB17 SCID mice (Janvier Labs, Le Genest-Saint-Isle, France) were subcutaneously injected with a 2:1 mixture of 4 × 10^6 human PSCs and 2 × 10^6 PANC-1 or MIA PaCa-2 cells. Tumor growth was assessed twice a week. Tumor-bearing mice (±100 mm^3) were treated with phosphate buffered saline (PBS), cyAV3.3, gemcitabine, or combination of gemcitabine and cyAV3.3 intraperitoneally (i.p). Animals were euthanized, tumors and other organs were harvested and embedded in Cryomatrix (Thermo Scientific) before being snap frozen in cold 2-methyl butane (Thermo Scientific) and stored at −80 °C until analyses. […]
Immunohistochemical staining of mouse tumors
Tumors were cut into 7 μm thick sections and mounted on glass slides using Cryotome FSE (Thermo Scientific), dried, and fixed in acetone for 15 min. Tumor sections were rehydrated in PBS for 10 min then incubated with primary antibody diluted in PBS for 1 hour at RT. Antibodies […]
Next, slides were washed 3 times with PBS before incubation with secondary fluorescence-labeled antibody diluted in PBS. After 30 min of incubation, slides were washed with PBS and shielded with a DAPI -containing mounting medium. Images were made using a Hamamatsu NanoZoomer Digital slide scanner 2.0HT (Hamamatsu Photonics, New Jersey, […]

## C[C@@H]1NC(=O)[C@H](CCCNC(=N)N)NC(=O)[C@H](Cc2ccc(O)cc2)NC(=O)[C@H](Cc2ccc(O)cc2)NC(=O)[C@H](CCCNC(=N)N)NC(=O)CNC(=O)[C@H](CCCCN)NC(=O)[C@H](Cc2ccc(O)cc2)NC(=O)[C@H]([C@@H](C)O)NC1=O [cyAV3.3] (cyclo(ATYKGRYYR))
[1]; Western blot
  inhibition of downstream signaling p-FAK: more inhibition
[1]; immunostaining and Western blot
  inhibition of PSC activation by TGF-β1 (expression of α-SMA and collagen-1): much stronger than AV3.3
[2]; PANC-1 + PSC heterospheroids
  gene expression levels related to resistance, stemness and ECM in heterospheroids: significantly reduced
[2]; PANC-1 homospheroids
  gene expression in homospheroids: some genes including ABCG1, KRAS, MMP2, MMP9 were inhibited
[3]; PANC-1 + PSC and MIA PaCa-2 + PSC co-injection xenografts, i.p. treatment, n = 4 per group per tumor type
  reduction of tumor size / tumor growth: ~30%
[3]; co-injection xenograft mice, i.p. treatment
  signs of toxicity (body mass, organ mass): did not show any obvious signs of toxicity
[3]; immunofluorescence, co-injection xenograft tumors
  tumor blood vessel (CD31+) lumen diameter: larger lumen diameter compared to the control tumors
